Results taken from ChEMBL document CHEMBL1128954, “Discovery of antirhinoviral leads by screening a combinatorial library of ureas prepared using covalent scavengers” (Bioorg Med Chem Lett, 1996).

What was measured:
[1] = test system: Human rhinovirus sp.; assay: Compound was evaluated for antirhinoviral activity against human rhinovirus-14 (HRV-14) in whole cell assay; assay type: functional, organism-based
[2] = test system: Human rhinovirus sp.; assay: Compound was evaluated for the inhibition of human rhinovirus-14 HRV-14 at 1 ug/ml; assay type: functional
[3] = test system: Human rhinovirus sp.; assay: Compound was evaluated for cytotoxicity against human rhinovirus-14 (HRV-14) in whole cells as cresynthesized product using XTT assay.; assay type: functional
[4] = test system: Human rhinovirus sp.; assay: Compound was evaluated for cytotoxicity against human rhinovirus-14 (HRV-14) in whole cells as combinatorial sample; assay type: functional
[5] = test system: Human rhinovirus sp.; assay: Compound was evaluated for antirhinoviral activity against human rhinovirus-14 (HRV-14) as resynthesized product using XTT assay.; assay type: functional, organism-based
[6] = test system: Human rhinovirus sp.; assay: Compound was evaluated for antirhinoviral activity against human rhinovirus-14 (HRV-14) as combinatorial sample; assay type: functional, organism-based

Row | Compound | inhibition at 1 µg/mL [2] [%] | further results
1 | CCCCOC(=O)c1ccc(NC(=O)N2CCN(CC(=O)NC(C)C)CC2)cc1 | 101 | IC50 [1]: 2400 nM; IC50 ([1]; Human rhinovirus sp.): 1800 nM; TC50 [3]: >40000 nM; TC50 [4]: >40000 nM
2 | CCCCOC(=O)c1ccc(NC(=O)NCCNC(C)=O)cc1 | 0 | 
3 | CCCCOC(=O)c1ccc(NC(=O)N2CCCC(C(N)=O)C2)cc1 (stereo not drawn) | 1 | 
4 | CCCCOC(=O)c1ccc(NC(=O)NCCc2ccc(S(N)(=O)=O)cc2)cc1 | 102 | TC50 [3]: >40000 nM; TC50 [4]: 34000 nM; IC50 [5]: 810 nM; IC50 [6]: 690 nM
5 | CCCCOC(=O)c1ccc(NC(=O)N2CCCCC2O)cc1 (stereo not drawn) | 2 | 
6 | CCCCOC(=O)c1ccc(NC(=O)N2CCSCC2)cc1 | 1 | 
7 | CCCCOC(=O)c1ccc(NC(=O)N2CCC(C(N)=O)CC2)cc1 | 0 | 
8 | CCCCOC(=O)c1ccc(NC(=O)NC2CC3CCC2C3)cc1 (stereo not drawn) | 1 | 
9 | CCCCOC(=O)c1ccc(NC(=O)N2CCN(c3ccccn3)CC2)cc1 | 0 | 
10 | CCCCOC(=O)c1ccc(NC(=O)N2CCCC(C(=O)N(CC)CC)C2)cc1 (stereo not drawn) | 0 | 
